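Following 48 hours of exposure in 96-well plates, responses at five concentrations were used to interpolate endpoints linearly. Definition used: TGI = concentration required for complete inhibition of growth.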
Columns and labels:
Test in all cases: DTP human tumour cell line panel, 48 h
786-0 renal = tested on: 786-0 renal
A549 NSCLC = tested on: A549 NSCLC
ACHN renal = tested on: ACHN renal
BT-549 breast = tested on: BT-549 breast
CAKI-1 renal = tested on: CAKI-1 renal
CCRF-CEM leukemia = tested on: CCRF-CEM leukemia
COLO 205 colon = tested on: COLO 205 colon
DU-145 prostate = tested on: DU-145 prostate
EKVX NSCLC = tested on: EKVX NSCLC
HCC-2998 colon = tested on: HCC-2998 colon
HCT-116 colon = tested on: HCT-116 colon
HCT-15 colon = tested on: HCT-15 colon
HL-60(TB) leukemia = tested on: HL-60(TB) leukemia
HOP-62 NSCLC = tested on: HOP-62 NSCLC
HS 578T breast = tested on: HS 578T breast
HT29 colon = tested on: HT29 colon
IGROV1 ovarian = tested on: IGROV1 ovarian
K-562 leukemia = tested on: K-562 leukemia
KM12 colon = tested on: KM12 colon
LOX IMVI melanoma = tested on: LOX IMVI melanoma
M14 melanoma = tested on: M14 melanoma
MALME-3M melanoma = tested on: MALME-3M melanoma
MCF7 breast = tested on: MCF7 breast
MDA-MB-231 breast = tested on: MDA-MB-231 breast
MDA-MB-435 = tested on: MDA-MB-435
MOLT-4 leukemia = tested on: MOLT-4 leukemia
NCI-H226 lung = tested on: NCI-H226 lung
NCI-H23 lung = tested on: NCI-H23 lung
NCI-H460 lung = tested on: NCI-H460 lung
NCI-H522 lung = tested on: NCI-H522 lung
NCI/ADR-RES ovarian = tested on: NCI/ADR-RES ovarian
OVCAR-3 ovarian = tested on: OVCAR-3 ovarian
OVCAR-4 ovarian = tested on: OVCAR-4 ovarian
OVCAR-5 ovarian = tested on: OVCAR-5 ovarian
OVCAR-8 ovarian = tested on: OVCAR-8 ovarian
PC-3 prostate = tested on: PC-3 prostate
RPMI-8226 leukemia = tested on: RPMI-8226 leukemia
RXF 393 renal = tested on: RXF 393 renal
SF-268 CNS = tested on: SF-268 CNS
SF-295 CNS = tested on: SF-295 CNS
SF-539 CNS = tested on: SF-539 CNS
SK-MEL-2 melanoma = tested on: SK-MEL-2 melanoma
SK-MEL-28 melanoma = tested on: SK-MEL-28 melanoma
SK-MEL-5 melanoma = tested on: SK-MEL-5 melanoma
SK-OV-3 ovarian = tested on: SK-OV-3 ovarian
SN12C renal = tested on: SN12C renal
SNB-19 CNS = tested on: SNB-19 CNS
SNB-75 CNS = tested on: SNB-75 CNS
SR leukemia = tested on: SR leukemia
SW-620 colon = tested on: SW-620 colon
T-47D breast = tested on: T-47D breast
TK-10 renal = tested on: TK-10 renal
U251 CNS = tested on: U251 CNS
UACC-257 melanoma = tested on: UACC-257 melanoma
UACC-62 melanoma = tested on: UACC-62 melanoma
UO-31 renal = tested on: UO-31 renal
A498 renal = tested on: A498 renal
HOP-92 NSCLC = tested on: HOP-92 NSCLC

SMILES: C/C(=C\CO)CC/C=C(\C)CNc1c(F)c(F)c(F)c(F)c1F
- TGI (786-0 renal): > 100 µM
- TGI (A549 NSCLC): 94.8 µM
- TGI (ACHN renal): > 100 µM
- TGI (BT-549 breast): 22.3 µM
- TGI (CAKI-1 renal): > 100 µM
- TGI (CCRF-CEM leukemia): > 100 µM
- TGI (COLO 205 colon): 67.1 µM
- TGI (DU-145 prostate): > 100 µM
- TGI (EKVX NSCLC): 98.3 µM
- TGI (HCC-2998 colon): 59.8 µM
- TGI (HCT-116 colon): > 100 µM
- TGI (HCT-15 colon): 85.4 µM
- TGI (HL-60(TB) leukemia): 65.8 µM
- TGI (HOP-62 NSCLC): 68 µM
- TGI (HS 578T breast): 74.6 µM
- TGI (HT29 colon): 52.3 µM
- TGI (IGROV1 ovarian): > 100 µM
- TGI (K-562 leukemia): 92 µM
- TGI (KM12 colon): 77.5 µM
- TGI (LOX IMVI melanoma): 80.8 µM
- TGI (M14 melanoma): > 100 µM
- TGI (MALME-3M melanoma): 57.2 µM
- TGI (MCF7 breast): 70.1 µM
- TGI (MDA-MB-231 breast): 40.5 µM
- TGI (MDA-MB-435): 53.8 µM
- TGI (MOLT-4 leukemia): > 100 µM
- TGI (NCI-H226 lung): 75.1 µM
- TGI (NCI-H23 lung): > 100 µM
- TGI (NCI-H460 lung): > 100 µM
- TGI (NCI-H522 lung): 46.3 µM
- TGI (NCI/ADR-RES ovarian): 86.2 µM
- TGI (OVCAR-3 ovarian): 52.8 µM
- TGI (OVCAR-4 ovarian): > 100 µM
- TGI (OVCAR-5 ovarian): > 100 µM
- TGI (OVCAR-8 ovarian): 38 µM
- TGI (PC-3 prostate): 58.5 µM
- TGI (RPMI-8226 leukemia): 43.8 µM
- TGI (RXF 393 renal): 65.3 µM
- TGI (SF-268 CNS): 67.3 µM
- TGI (SF-295 CNS): 52.9 µM
- TGI (SF-539 CNS): 40.3 µM
- TGI (SK-MEL-2 melanoma): 48.6 µM
- TGI (SK-MEL-28 melanoma): 41.1 µM
- TGI (SK-MEL-5 melanoma): 31.9 µM
- TGI (SK-OV-3 ovarian): > 100 µM
- TGI (SN12C renal): 41.2 µM
- TGI (SNB-19 CNS): 75 µM
- TGI (SNB-75 CNS): 66.3 µM
- TGI (SR leukemia): 74.9 µM
- TGI (SW-620 colon): > 100 µM
- TGI (T-47D breast): > 100 µM
- TGI (TK-10 renal): 85.7 µM
- TGI (U251 CNS): 59.2 µM
- TGI (UACC-257 melanoma): 47.4 µM
- TGI (UACC-62 melanoma): 37.9 µM
- TGI (UO-31 renal): 80.8 µM

SMILES: Cc1sc(Nc2ccc(Nc3nc(-c4ccccc4)c(C)s3)cc2)nc1-c1ccccc1
- TGI (786-0 renal): > 100 µM
- TGI (A498 renal): > 100 µM
- TGI (A549 NSCLC): > 100 µM
- TGI (ACHN renal): > 100 µM
- TGI (BT-549 breast): > 100 µM
- TGI (CAKI-1 renal): > 100 µM
- TGI (CCRF-CEM leukemia): > 100 µM
- TGI (COLO 205 colon): 42.1 µM
- TGI (DU-145 prostate): > 100 µM
- TGI (EKVX NSCLC): > 100 µM
- TGI (HCC-2998 colon): 50.5 µM
- TGI (HCT-116 colon): > 100 µM
- TGI (HCT-15 colon): > 100 µM
- TGI (HOP-62 NSCLC): > 100 µM
- TGI (HOP-92 NSCLC): > 100 µM
- TGI (HS 578T breast): > 100 µM
- TGI (HT29 colon): > 100 µM
- TGI (IGROV1 ovarian): > 100 µM
- TGI (K-562 leukemia): > 100 µM
- TGI (KM12 colon): > 100 µM
- TGI (LOX IMVI melanoma): > 100 µM
- TGI (M14 melanoma): > 100 µM
- TGI (MALME-3M melanoma): > 100 µM
- TGI (MCF7 breast): 71.5 µM
- TGI (MDA-MB-231 breast): > 100 µM
- TGI (MDA-MB-435): > 100 µM
- TGI (MOLT-4 leukemia): > 100 µM
- TGI (NCI-H226 lung): > 100 µM
- TGI (NCI-H23 lung): > 100 µM
- TGI (NCI-H460 lung): > 100 µM
- TGI (NCI-H522 lung): > 100 µM
- TGI (NCI/ADR-RES ovarian): > 100 µM
- TGI (OVCAR-3 ovarian): > 100 µM
- TGI (OVCAR-4 ovarian): > 100 µM
- TGI (OVCAR-5 ovarian): > 100 µM
- TGI (OVCAR-8 ovarian): > 100 µM
- TGI (PC-3 prostate): 48.4 µM
- TGI (RXF 393 renal): 81.5 µM
- TGI (SF-268 CNS): > 100 µM
- TGI (SF-295 CNS): > 100 µM
- TGI (SF-539 CNS): 70.6 µM
- TGI (SK-MEL-2 melanoma): 76.4 µM
- TGI (SK-MEL-28 melanoma): > 100 µM
- TGI (SK-MEL-5 melanoma): 66.3 µM
- TGI (SK-OV-3 ovarian): > 100 µM
- TGI (SN12C renal): > 100 µM
- TGI (SNB-19 CNS): > 100 µM
- TGI (SNB-75 CNS): > 100 µM
- TGI (SR leukemia): > 100 µM
- TGI (SW-620 colon): > 100 µM
- TGI (T-47D breast): > 100 µM
- TGI (TK-10 renal): > 100 µM
- TGI (U251 CNS): 49.6 µM
- TGI (UACC-257 melanoma): > 100 µM
- TGI (UACC-62 melanoma): > 100 µM
- TGI (UO-31 renal): > 100 µM

From PubChem BioAssay (NCI)
